Measurements: ChEMBL document CHEMBL1287761, “The novel benzopyran class of selective cyclooxygenase-2 inhibitors-part I: the first clinical candidate” (Bioorg Med Chem Lett, 2010)

Assays:
[1] = biological target: Prostaglandin G/H synthase 1 (Homo sapiens, UniProt P23219); experiment: Inhibition of human COX-1
[2] = biological target: T1, Prostaglandin G/H synthase 2 (Homo sapiens, UniProt P35354); experiment: Inhibition of human COX-2
T1 sequence (P35354 whole entry): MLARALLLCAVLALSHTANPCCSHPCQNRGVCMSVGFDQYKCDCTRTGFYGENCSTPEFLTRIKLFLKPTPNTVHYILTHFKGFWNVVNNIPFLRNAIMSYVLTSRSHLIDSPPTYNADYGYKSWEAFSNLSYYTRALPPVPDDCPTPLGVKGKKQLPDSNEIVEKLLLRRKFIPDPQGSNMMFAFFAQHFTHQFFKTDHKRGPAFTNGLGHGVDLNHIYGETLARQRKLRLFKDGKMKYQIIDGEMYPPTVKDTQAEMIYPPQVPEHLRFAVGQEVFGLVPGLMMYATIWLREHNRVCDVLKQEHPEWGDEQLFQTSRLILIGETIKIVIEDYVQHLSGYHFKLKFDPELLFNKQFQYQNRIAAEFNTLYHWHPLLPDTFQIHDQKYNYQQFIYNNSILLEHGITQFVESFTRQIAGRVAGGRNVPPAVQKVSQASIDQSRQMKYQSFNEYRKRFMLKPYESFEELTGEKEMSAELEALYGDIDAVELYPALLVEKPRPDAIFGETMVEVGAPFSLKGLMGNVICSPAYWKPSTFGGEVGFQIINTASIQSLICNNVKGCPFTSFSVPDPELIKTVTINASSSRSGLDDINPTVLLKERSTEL

[3] = biological target: COX-1/COX-2 (Homo sapiens) (UniProt P35354+P23219); experiment: Selectivity ratio of IC50 for human COX-1 to IC50 for human COX-2
COX-1/COX-2 (Homo sapiens), sequence (P23219 whole entry, looked up, one chain of several): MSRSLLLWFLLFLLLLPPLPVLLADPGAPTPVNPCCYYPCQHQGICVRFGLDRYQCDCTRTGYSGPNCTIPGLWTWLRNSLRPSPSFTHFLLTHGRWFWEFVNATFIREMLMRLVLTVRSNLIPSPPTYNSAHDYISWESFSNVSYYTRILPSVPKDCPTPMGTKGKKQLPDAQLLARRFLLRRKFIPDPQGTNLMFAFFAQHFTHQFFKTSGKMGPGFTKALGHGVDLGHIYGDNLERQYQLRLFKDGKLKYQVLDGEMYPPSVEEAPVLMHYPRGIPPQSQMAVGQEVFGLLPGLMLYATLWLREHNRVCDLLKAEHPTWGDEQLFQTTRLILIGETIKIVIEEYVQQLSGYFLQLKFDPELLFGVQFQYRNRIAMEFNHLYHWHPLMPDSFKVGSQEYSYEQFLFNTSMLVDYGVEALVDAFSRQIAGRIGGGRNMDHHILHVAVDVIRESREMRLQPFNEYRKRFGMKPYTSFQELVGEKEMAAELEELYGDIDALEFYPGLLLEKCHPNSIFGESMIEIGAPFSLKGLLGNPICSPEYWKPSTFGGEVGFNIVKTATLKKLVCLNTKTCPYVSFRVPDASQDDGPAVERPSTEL

Rattus norvegicus [4] = experiment: Antiinflammatory activity against carrageenan-induced inflammation in Sprague-Dawley rat air pouch model assessed as reduction in PGE2 level administered 3 hrs after carrageenan challenge; type: functional
Rattus norvegicus [5] = experiment: Analgesic activity against carrageenan-induced thermal hyperalgesia in Sprague-Dawley rat assessed as paw withdrawal latency administered 1 to 3 hrs after carrageenan challenge; type: functional
Rattus norvegicus [6] = species on record: Rattus norvegicus; experiment: Antiinflammatory effect in complete Freund's adjuvant-induced Lewis rat arthritis model assessed as reduction in paw swelling by volume displacement plethysmometry; type: functional
[7] = Half life in rat; type: ADME, organism-based; conditions: in vivo
[8] = Half life in dog; type: ADME, organism-based, Canis lupus familiaris; conditions: in vivo
Rattus norvegicus [9] = experiment: Antiinflammatory activity against carrageenan-induced paw edema in Sprague-Dawley rat administered 1 to 3 hrs after carrageenan challenge; type: functional

Prostaglandin G/H synthase 1, sequence (P23219 whole entry): as the sequence (P23219 whole entry, looked up, one chain of several) above

IC50 [1]	IC50 [2]	Ratio IC50 [3]	SMILES	further results
< 350 nM	43 nM	–	C#Cc1cc(Cl)cc2c1OC(C(F)(F)F)C(C(=O)O)=C2 (stereo not drawn)	–
880 nM	6 nM	136	O=C(O)C1=Cc2c(cc(Cl)c(Cl)c2Cl)OC1C(F)(F)F (stereo not drawn)	–
3110 nM	110 nM	–	O=C(O)C1=Cc2cc(Cl)cc(-c3ccccc3)c2OC1C(F)(F)F (stereo not drawn)	–
140 nM	18 nM	–	C=Cc1cc(Cl)cc2c1OC(C(F)(F)F)C(C(=O)O)=C2 (stereo not drawn)	–
1740 nM	760 nM	–	NS(=O)(=O)c1ccc(-c2cc(Cl)cc3c2OC(C(F)(F)F)C(C(=O)O)=C3)cc1 (stereo not drawn)	–
2700 nM	43 nM	63	O=C(O)C1=Cc2cc(Cl)c(Cl)c(Cl)c2OC1C(F)(F)F (stereo not drawn)	–

The remaining lines, values behind:

SMILES	IC50 [1]	IC50 [2]	Ratio IC50 [3]	further results
O=C(O)C1=Cc2ccc(Cl)c(Cl)c2OC1C(F)(F)F (stereo not drawn)	300000 nM	300000 nM	1	–
O=C(O)C1=Cc2cc(Cl)c(Cl)cc2OC1C(F)(F)F (stereo not drawn)	94500 nM	62 nM	1520	–
O=C(O)C1=Cc2cc(Cl)ccc2OC1C(F)(F)F (stereo not drawn)	29200 nM	320 nM	90	inhibition (INH) (Rattus norvegicus [4]): 98%; ED50 (Rattus norvegicus [5]): 6 mg/kg; ED50 (Rattus norvegicus [6]): 0.4 mg/kg
O=C(O)C1=Cc2c(Cl)cc(Cl)cc2OC1C(F)(F)F (stereo not drawn)	145000 nM	12000 nM	12	–
Cc1ccc(-c2cc(C(F)(F)F)nn2-c2ccc(S(N)(=O)=O)cc2)cc1 [CELECOXIB]	–	–	–	inhibition (INH) (Rattus norvegicus [4]): 94%; ED50 (Rattus norvegicus [5]): 35 mg/kg; ED50 (Rattus norvegicus [6]): 0.3 mg/kg
O=C(O)C1=Cc2cc(Cl)cc(C#Cc3ccccc3)c2OC1C(F)(F)F (stereo not drawn)	33000 nM	140 nM	–	–
O=C(O)C1=Cc2cc(Cl)cc(Cl)c2O[C@@H]1C(F)(F)F	–	–	–	half-life [7]: 10.1 h; half-life [8]: 20.4 h; ED50 (Rattus norvegicus [4]; Rattus norvegicus, Sprague-Dawley, 3 h): 0.54 mg/kg; ED50 (Rattus norvegicus [9]): 7.1 mg/kg; ED50 (Rattus norvegicus [5]): 2.6 mg/kg; ED50 (Rattus norvegicus [6]): 0.03 mg/kg
O=C(O)C1=Cc2c(Cl)ccc(Cl)c2OC1C(F)(F)F (stereo not drawn)	11000 nM	100 nM	110	–
